Assay: pKa of Brönsted acidic or basic functional groups of the fluorescer
Assay type: physicochemical
Conditions: functional groups comprised in the fluorescer
Text: In addition, a preferred group of […] can be described by the presence and pKa of certain functional groups in the fluorescer. Therefore, a preferred group of hydrophilic fluorescers comprises fluorescers having at least one or more Brönsted acidic, basic functional groups or mixtures thereof with a pKa of 7 or less. A Brönsted acidic functional group is generally defined as a —AH group having a pKa of 7 or less for the equilibrium dissociation constant Ka=[—A][H′]/[—AH]. Likewise a Brönsted basic functional group is generally defined as a —B group, the conjugate acid of it (i.e. BH^+) having a pKa of 7 or less for the equilibrium dissociation constant Ka=[—B][H^+]/[—BH^+]. Examples of acidic functional groups include sulphonate, carboxylate, sulphate, phosphate, phosphonate and phosphinate. Examples of basic functional groups include amino groups, primary, secondary and tertiary amine groups.

O=S(=O)([O-])c1ccccc1C=Cc1ccc(-c2ccc(C=Cc3ccccc3S(=O)(=O)[O-])cc2)cc1.[Na+].[Na+] [TINOPAL™ CBS-X]
pKa of functional groups: < 7
